{
  "source": "patent US20240197623A1",
  "about": "“SILICA-BASED FORMULATIONS OF THERAPEUTIC OLIOGPEPTIDES AND PEPTIDOMIMETICS” (Stealth Bio Therapeutics Inc., priority 2021, published 2024)",
  "key": {"[1]": {"test": "Release/stability of API in ammonium bifluoride, stability-indicating RP-HPLC", "type": "physicochemical", "details": "for modification of the API by the formulation process: impurities in fresh API vs API released from microparticle formulations"}, "[2]": {"system": "patients with intermediate age-related macular degeneration (AMD) and high-risk drusen (HRD)", "details": "subcutaneous administration, ReCLAIM, Ophthalmology Science 2022; cited from earlier work"}, "[3]": {"system": "age-related visual impairment", "details": "Alam et al., Disease Models & Mechanisms (2021); cited from earlier work"}},
  "note": "Where a SMILES comes first, the peptide text is derived from it. [ ]: non-standard residue; d: D form. Dmt = Cc1cc(O)cc(C)c1C[C@H](N)C(=O)O",
  "data": [
    {"smiles": "Cc1cc(O)cc(C)c1C[C@H](NC(=O)[C@H](N)CCCNC(=N)N)C(=O)N[C@@H](CCCCN)c1nc(Cc2ccccc2)no1", "note": "[Compound I]", "values": [
      {"measurement": "Purity", "setting": "[1]; Control/standard: 16 μg/mL Compound I in H2O", "result": 99.1, "unit": "%"},
      {"measurement": "Purity", "setting": "[1]; Control/standard: 40 μg/mL Compound I in H2O", "result": 98.4, "unit": "%"},
      {"measurement": "Purity", "setting": "[1]; Spiked: 16 μg/mL Compound I in 0.1M NH4HF2", "result": 99.2, "unit": "%"},
      {"measurement": "Purity", "setting": "[1]; Spiked: 40 μg/mL Compound I in 0.1M NH4HF2", "result": 98.6, "unit": "%"},
      {"measurement": "modification of the API by the formulation process", "setting": "[1]", "result": "not significantly modified"}
    ]},
    {"smiles": "Cc1cc(O)cc(C)c1C[C@H](NC(=O)[C@H](N)CCCNC(=N)N)C(=O)N[C@@H](CCCCN)C(=O)N[C@@H](Cc1ccccc1)C(N)=O", "note": "[elamipretide] (H-[dR][Dmt]KF-NH2)", "values": [
      {"measurement": "safety and tolerability", "setting": "[2]", "result": "safe and well-tolerated"},
      {"measurement": "modification of the API by the formulation process", "setting": "[1]", "result": "not significantly modified"},
      {"measurement": "treatment of photopic age-related loss of spatial vision", "setting": "[3]", "result": "effective"}
    ]}
  ]
}
